Assays:
Assay type in all cases: binding
[1] = target: T1, TGF-β2-α2M* complex (Homo sapiens, UniProt P01023); experiment: Inhibition of 125I-TGF-β2 and α2M* complex formation (5% non-denaturing PAGE); conditions: 30% inhibition
T1 construct: was purified from pooled citrate-treate human plasma; from tissue; host or cells: pooled citrate-treated human plasma
T1 sequence (P01023 24-1474): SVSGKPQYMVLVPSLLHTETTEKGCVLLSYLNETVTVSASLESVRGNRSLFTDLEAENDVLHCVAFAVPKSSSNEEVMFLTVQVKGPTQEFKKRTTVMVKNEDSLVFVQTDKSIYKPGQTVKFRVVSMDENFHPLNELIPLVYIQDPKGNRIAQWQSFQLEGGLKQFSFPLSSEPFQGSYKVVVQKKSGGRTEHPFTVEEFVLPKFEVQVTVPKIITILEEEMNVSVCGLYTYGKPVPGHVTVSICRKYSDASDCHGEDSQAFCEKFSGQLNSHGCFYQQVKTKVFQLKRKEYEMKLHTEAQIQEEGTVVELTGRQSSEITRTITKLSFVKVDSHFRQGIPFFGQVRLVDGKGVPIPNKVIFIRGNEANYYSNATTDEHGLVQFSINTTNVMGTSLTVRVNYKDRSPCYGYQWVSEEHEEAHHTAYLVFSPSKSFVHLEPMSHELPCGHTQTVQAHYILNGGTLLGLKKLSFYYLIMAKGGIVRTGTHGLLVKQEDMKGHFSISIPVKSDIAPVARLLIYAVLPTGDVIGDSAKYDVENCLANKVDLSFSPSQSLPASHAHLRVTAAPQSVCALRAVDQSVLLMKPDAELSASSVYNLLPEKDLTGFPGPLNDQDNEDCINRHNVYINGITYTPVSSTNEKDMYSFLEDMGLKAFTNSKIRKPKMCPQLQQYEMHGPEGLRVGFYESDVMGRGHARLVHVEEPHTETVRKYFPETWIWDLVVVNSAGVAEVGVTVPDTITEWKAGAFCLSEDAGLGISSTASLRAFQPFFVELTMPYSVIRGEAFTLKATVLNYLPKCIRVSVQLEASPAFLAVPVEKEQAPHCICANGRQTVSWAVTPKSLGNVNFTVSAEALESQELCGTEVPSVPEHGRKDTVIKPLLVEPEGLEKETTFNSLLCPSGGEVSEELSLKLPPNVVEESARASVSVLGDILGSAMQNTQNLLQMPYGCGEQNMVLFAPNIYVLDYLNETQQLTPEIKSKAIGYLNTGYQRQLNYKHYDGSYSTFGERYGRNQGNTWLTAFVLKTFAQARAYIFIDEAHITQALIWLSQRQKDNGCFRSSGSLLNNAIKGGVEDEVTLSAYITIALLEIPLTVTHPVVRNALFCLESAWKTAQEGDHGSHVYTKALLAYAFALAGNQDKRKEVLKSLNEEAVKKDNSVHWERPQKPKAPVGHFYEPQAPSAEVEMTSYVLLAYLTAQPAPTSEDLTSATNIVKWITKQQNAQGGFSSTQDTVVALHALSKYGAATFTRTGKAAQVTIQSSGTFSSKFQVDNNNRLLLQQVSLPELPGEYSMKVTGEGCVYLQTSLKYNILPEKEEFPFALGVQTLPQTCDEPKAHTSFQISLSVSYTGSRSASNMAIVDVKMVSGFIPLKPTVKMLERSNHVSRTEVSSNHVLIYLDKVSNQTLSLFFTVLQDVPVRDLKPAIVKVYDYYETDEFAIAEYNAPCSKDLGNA
Description: (§1) TGF- ? isoforms bind to α2M* with different affinities: TGF ? β2>TGF ? β1 ( active sites of TGF ? β1 and TGF- ? 2 responsible for high-affinity binding to ? 2M* are disti from the low-affinity ? 2M* binding site in TGF- ? 3 (19). To determine if fatty acids differentially affect the binding of TGF- ? isoforms to ? 2M*, the effects of various concentrations of arachidonic acid and myristic acid on complex formation of ^125I-labeled TGF ? β isoforms and ? 2M were determined*. […] It inhibited 30% of the complex form . α2M* and TGF ? β2 and TGF ? β3 at 100 and >250 μM, respectively. Arachidon polyunsaturated fatty acid, was a stronger inhibitor of complex formation of ? 2M* and TGF-.β2/TGF ? β3. It inhibited 50% of the complex formation of ? 2M* and ^125I-TGF- ? 2 at 50 μM (FIG. 3A). The observation that myristic acid and arachidonic acid inhibited complex formation of ^125I-TGF- ? […] 2M* complexes in the reaction mixtures were then analyzed by 7.5% SDS-PAGE and autoradiography.
(§2) Complex formation of ^125I-TGF-β and ? […] After 30 min at room temperature, the complex formation of ^125I-TGF- ? and. α2M* was determined by 5% non-denaturing polyacrylamide gel electrophoresis (PAGE) or by 7.5% SDS-PAGE following cross-linking by 0.6 mM DSS. After electrophoresis, the gel was stained with Coomassie blue and analyzed by autoradiography. […] 2M* was quantified using a PhosphoImager (Fuji).

[2] = target: T2, 125I-TGF-β2-α2M* complex (Homo sapiens, UniProt P01023); experiment: Dissociation of preformed 125I-TGF-β2-α2M* complex; conditions: at 250 μM
T2 construct: was purified from pooled citrate-treate human plasma; from tissue; host or cells: pooled citrate-treated human plasma
T2 sequence (P01023 24-1474): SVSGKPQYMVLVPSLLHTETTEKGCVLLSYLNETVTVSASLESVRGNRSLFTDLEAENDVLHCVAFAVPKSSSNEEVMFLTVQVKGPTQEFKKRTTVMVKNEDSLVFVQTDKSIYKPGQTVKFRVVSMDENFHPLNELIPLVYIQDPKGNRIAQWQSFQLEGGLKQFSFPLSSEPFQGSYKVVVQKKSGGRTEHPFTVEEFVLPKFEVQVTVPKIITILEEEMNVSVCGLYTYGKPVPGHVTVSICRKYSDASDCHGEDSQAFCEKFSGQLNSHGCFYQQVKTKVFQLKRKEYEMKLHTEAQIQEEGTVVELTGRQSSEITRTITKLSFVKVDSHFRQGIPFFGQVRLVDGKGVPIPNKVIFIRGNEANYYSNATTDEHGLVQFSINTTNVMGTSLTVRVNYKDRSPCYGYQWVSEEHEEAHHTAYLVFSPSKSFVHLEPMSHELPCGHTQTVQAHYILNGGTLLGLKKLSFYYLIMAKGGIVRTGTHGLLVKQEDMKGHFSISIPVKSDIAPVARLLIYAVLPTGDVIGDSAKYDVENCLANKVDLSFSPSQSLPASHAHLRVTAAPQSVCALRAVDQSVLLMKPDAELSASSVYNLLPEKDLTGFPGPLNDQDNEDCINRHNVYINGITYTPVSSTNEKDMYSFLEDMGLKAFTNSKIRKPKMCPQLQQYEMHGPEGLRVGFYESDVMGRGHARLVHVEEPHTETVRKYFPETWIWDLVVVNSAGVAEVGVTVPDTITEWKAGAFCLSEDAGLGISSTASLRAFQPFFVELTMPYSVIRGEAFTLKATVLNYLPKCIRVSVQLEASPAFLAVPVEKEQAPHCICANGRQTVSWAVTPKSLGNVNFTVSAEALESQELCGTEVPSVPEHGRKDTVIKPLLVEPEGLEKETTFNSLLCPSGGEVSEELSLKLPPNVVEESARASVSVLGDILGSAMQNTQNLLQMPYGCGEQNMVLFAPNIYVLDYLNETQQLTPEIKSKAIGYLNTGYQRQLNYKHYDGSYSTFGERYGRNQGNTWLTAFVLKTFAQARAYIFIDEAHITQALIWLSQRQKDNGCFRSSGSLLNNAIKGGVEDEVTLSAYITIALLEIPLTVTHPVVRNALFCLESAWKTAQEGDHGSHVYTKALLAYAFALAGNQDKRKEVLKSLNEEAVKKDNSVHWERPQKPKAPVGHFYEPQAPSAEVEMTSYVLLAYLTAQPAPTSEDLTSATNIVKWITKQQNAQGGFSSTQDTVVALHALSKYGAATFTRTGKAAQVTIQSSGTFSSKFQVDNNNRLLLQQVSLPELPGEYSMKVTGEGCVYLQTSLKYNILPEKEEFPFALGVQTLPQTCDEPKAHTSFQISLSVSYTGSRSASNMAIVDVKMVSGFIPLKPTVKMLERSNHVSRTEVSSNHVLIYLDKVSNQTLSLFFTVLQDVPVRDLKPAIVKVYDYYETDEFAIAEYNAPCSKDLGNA

[3] = target: T3, TGF-β3-α2M* complex (Homo sapiens, UniProt P01023); experiment: Inhibition of 125I-TGF-β3 and α2M* complex formation (5% non-denaturing PAGE); conditions: 30% inhibition
T3 construct: was purified from pooled citrate-treate human plasma; from tissue; host or cells: pooled citrate-treated human plasma
T3 sequence (P01023 24-1474): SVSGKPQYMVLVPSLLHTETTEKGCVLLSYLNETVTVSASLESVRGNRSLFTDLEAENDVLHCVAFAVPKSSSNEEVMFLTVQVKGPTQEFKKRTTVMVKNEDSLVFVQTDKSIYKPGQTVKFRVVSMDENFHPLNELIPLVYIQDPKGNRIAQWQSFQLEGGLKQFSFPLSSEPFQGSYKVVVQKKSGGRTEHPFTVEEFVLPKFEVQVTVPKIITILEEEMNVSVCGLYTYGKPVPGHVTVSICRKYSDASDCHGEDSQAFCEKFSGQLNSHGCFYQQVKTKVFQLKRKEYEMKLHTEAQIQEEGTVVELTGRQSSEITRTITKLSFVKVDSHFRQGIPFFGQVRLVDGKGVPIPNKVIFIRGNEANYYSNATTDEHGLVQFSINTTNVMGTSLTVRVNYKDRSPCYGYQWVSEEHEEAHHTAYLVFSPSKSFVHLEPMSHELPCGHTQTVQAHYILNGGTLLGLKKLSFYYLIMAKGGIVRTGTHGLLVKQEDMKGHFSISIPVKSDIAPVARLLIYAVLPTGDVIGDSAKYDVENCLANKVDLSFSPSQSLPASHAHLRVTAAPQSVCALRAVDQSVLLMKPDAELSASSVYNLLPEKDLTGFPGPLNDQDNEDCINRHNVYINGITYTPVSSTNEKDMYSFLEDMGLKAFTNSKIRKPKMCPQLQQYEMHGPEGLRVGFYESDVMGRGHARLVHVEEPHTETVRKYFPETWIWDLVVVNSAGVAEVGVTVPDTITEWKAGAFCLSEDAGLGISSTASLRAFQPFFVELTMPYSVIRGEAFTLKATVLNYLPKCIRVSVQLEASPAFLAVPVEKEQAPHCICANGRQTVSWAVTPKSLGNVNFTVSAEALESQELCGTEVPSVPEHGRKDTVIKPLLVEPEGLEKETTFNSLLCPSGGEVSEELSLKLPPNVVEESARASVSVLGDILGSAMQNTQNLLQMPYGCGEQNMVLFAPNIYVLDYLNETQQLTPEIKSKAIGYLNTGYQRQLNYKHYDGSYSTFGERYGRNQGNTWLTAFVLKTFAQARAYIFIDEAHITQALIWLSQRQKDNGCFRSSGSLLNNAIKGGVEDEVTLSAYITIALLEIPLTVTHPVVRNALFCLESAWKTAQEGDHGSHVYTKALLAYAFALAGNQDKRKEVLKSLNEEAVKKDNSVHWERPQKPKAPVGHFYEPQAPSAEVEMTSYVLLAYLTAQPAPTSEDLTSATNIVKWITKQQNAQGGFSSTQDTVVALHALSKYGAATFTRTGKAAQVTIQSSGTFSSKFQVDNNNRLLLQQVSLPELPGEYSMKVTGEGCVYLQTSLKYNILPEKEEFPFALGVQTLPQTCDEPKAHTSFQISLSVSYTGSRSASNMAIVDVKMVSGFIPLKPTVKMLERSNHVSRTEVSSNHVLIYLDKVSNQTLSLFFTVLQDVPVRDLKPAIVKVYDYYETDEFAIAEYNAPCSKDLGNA
Description: as §1, §2

CCCCCCCCCCCCCC(=O)O [myristic acid] was tested, and the “concentration that inhibited 30% of the complex formation of α2M* and TGF-β2” value [1] was 100 µM, the “dissociation of the 125I-TGF-β2-α2M* complex” value [2] was “inactive” and the “concentration that inhibited 30% of the complex formation of α2M* and TGF-β3” value [3] was greater than 250 µM.

Source: patent publication US20040229791A1, “Compositions and methods of modulating TGF-beta activity by fatty acids” (priority 2002, published 2004)
